Reference: patent publication US20190054090A1, “COMBINATION OF A BTK INHIBITOR AND A CHECKPOINT INHIBITOR FOR TREATING CANCERS” (Gilead Sciences, Inc., priority 2015, published 2019)

Columns and labels:
B-cell lymphoma A20 = details: previously reported, Sagiv-Barfi et al. PNAS 2015; cited from earlier work
[1] = body weight of A20-bearing BALB/c mice; type: in vivo; details: first study, Compound A1 46 mg/kg/day in diet (0.037%), 4H2 i.p. 20 mg/kg day 0 then 10 mg/kg every 6 days, n=9
Experimental: (§1) A20-bearing BALB/c mice were subcutaneously injected (5×10^6 cells per animal). Day 6 after cell injection (day 0), mice having the tumor volume of about were 200 mm^3 were randomized into four groups (n=9 per group) for treatment with vehicle (CRF-1), Compound A1, 4H2, or Compound A1 and 4H2. Mice were fed diets containing of Compound A1. 4H2 was administered intraperitoneally at 20 mg/kg on day 0 followed by 10 mg/kg every 6 days; the average dose of Compound A1 was 46 mg/kg/day (CRF-1 at 0.037%) in the first and second studies or 15 mg/kg/day (CRF-1 at 0.012%) in the second study. During the studies, tumor volume (long axis of tumor×(short axis of tumor)^2×0.5), tumor growth inhibition rate (TGI, as compared to tumors of the vehicle control group), temporal changes in tumor volume, body weight, or food intake were determined. The studies were terminated when tumors reached a maximum of 3,000 mm^3.
In the second study, the effects of Compound A1 at 15 mg/kg/day (CRF-1 at 0.012%) and 46 mg/kg/day (CRF-1 at 0.037%) were evaluated. Similar protocols as described above were used. The study (n=12 per group) was terminated at day 17.

[2] = system: L1210 cell line (JCRB), mouse lymphocytic leukemia; experiment: in vivo anti-tumor activity in L1210 syngeneic tumors; details: Compound A1 54 mg/kg/day in diet (0.037%), 4H2 i.p. 20 mg/kg day 0 then 10 mg/kg every 6 days, n=8
Experimental: (§2) This example evaluated in vivo anti-tumor activity of a BTK inhibitor (Compound A1) in combination with an anti-PD-1 antibody (4H2) in syngeneic tumors. Similar protocols as described above were used with L1210 cell line (JCRB), mouse lymphocytic leukemia.
(§3) L1210-bearing DBA-2 mice were subcutaneously injected (5×10^5 cells/animal). Mice were randomized into four groups (n=8 per group) for treatment with vehicle (CRF-1), Compound A1, 4H2 (10 mg/kg every 6 days), or Compound A1 and 4H2. Mice were fed diets containing of Compound A1. 4H2 was administered intraperitoneally at 20 mg/kg on day 0 followed by 10 mg/kg every 6 days. The average dose of Compound A1 was 54 mg/kg/day (CRF-1 at 0.037%).

[3] = body weight of L1210-bearing DBA-2 mice; type: in vivo; details: Compound A1 54 mg/kg/day in diet (0.037%), 4H2 i.p. 20 mg/kg day 0 then 10 mg/kg every 6 days, n=8
Experimental: as §2, §3

[4] = system: A20 cell line (ATCC), mouse B-cell lymphoma; experiment: in vivo anti-tumor activity in A20 syngeneic tumors; details: first study, Compound A1 46 mg/kg/day in diet (0.037%), 4H2 i.p. 20 mg/kg day 0 then 10 mg/kg every 6 days, n=9
Experimental: This example evaluated in vivo anti-tumor activity of a BTK inhibitor Compound A1 in combination with an anti-PD-1 antibody (4H2), (Kitayama Labes Co., Ltd) in syngeneic tumors.
A20 cell line (ATCC), mouse B-cell lymphoma, were maintained in lymphocyte growth medium (LGM): RPMI-1640 supplemented with 10% FBS, 1% penicillin-streptomycin. Fresh 1% (vol) Monothioglycerol was also added to the culture. The cell suspension of 2×10^6 to 4×10^6 cells per dish was cultured at 37° C., 5% CO2. The cells were suspended in PBS (5×10^7 cells/mL).
as §1, with “mm^3. […]” for “mm^3.”

Structure (SMILES): C=CC(=O)N1CCC[C@@H](n2nc(-c3ccc(Oc4ccccc4)cc3)c3c(N)ncnc32)C1 [ibrutinib, 1-[(3R)-3-[4-Amino-3-(4-phenoxyphenyl)-1H-pyrazolo[3,4-d]pyrimidin-1-yl]piperidin-1-yl]prop-2-en-1-one]
- sensitivity of B-cell lymphoma A20 to the Btk inhibitor (B-cell lymphoma A20): would not be sensitive

Structure (SMILES): CC#CC(=O)N1CC[C@@H](n2c(=O)n(-c3ccc(Oc4ccccc4)cc3)c3c(N)ncnc32)C1 [Compound A1, (R)-6-amino-9-(1-(but-2-ynoyl)pyrrolidin-3-yl)-7-(4-phenoxyphenyl)-7H-purin-8(9H)-one]
- average body weight (±standard error) ([1]; day 0): 19 (±0.4) g
- average body weight (±standard error) ([1]; day 2): 19 (±0.4) g
- average body weight (±standard error) ([1]; day 6): 20 (±0.3) g
- average body weight (±standard error) ([1]; day 9): 20 (±0.3) g
- average body weight (±standard error) ([1]; day 12): 21 (±0.3) g
- average body weight (±standard error) ([1]; day 15): 21 (±0.3) g
- average body weight (±standard error) ([1]; day 19): 22 (±0.4) g
- average tumor volume (±standard error) ([2]; day 0): 0 (±0) mm^3
- average tumor volume (±standard error) ([2]; day 4): 71 (±16) mm^3
- tumor growth inhibition rate (TGI) ([2]; day 4): 8%
- average tumor volume (±standard error) ([2]; day 7): 247 (±34) mm^3
- tumor growth inhibition rate (TGI) ([2]; day 7): 30%
- average tumor volume (±standard error) ([2]; day 10): 874 (±108) mm^3
- tumor growth inhibition rate (TGI) ([2]; day 10): 7%
- average tumor volume (±standard error) ([2]; day 12): 1851 (±226) mm^3
- tumor growth inhibition rate (TGI) ([2]; day 12): −0.7%
- average tumor volume (±standard error) ([2]; day 14): 3279 (±321) mm^3
- tumor growth inhibition rate (TGI) ([2]; day 14): −0.2%
- average body weight (±standard error) ([3]; day 0): 15 (±0.4) g
- average body weight (±standard error) ([3]; day 4): 16 (±0.4) g
- average body weight (±standard error) ([3]; day 7): 16 (±0.4) g
- average body weight (±standard error) ([3]; day 10): 17 (±0.5) g
- average body weight (±standard error) ([3]; day 12): 18 (±0.4) g
- average body weight (±standard error) ([3]; day 14): 19 (±0.5) g
- average tumor volume (±standard error) ([4]; day 0): 168 (±11) mm^3
- tumor growth inhibition rate (TGI, as compared to tumors of the vehicle control group) ([4]; day 0): 0.8%
- average tumor volume (±standard error) ([4]; day 2): 248 (±18) mm^3
- tumor growth inhibition rate (TGI, as compared to tumors of the vehicle control group) ([4]; day 2): 14%
- average tumor volume (±standard error) ([4]; day 6): 331 (±32) mm^3
- tumor growth inhibition rate (TGI, as compared to tumors of the vehicle control group) ([4]; day 6): 23%
- average tumor volume (±standard error) ([4]; day 9): 632 (±61) mm^3
- tumor growth inhibition rate (TGI, as compared to tumors of the vehicle control group) ([4]; day 9): −12%
- average tumor volume (±standard error) ([4]; day 12): 805 (±104) mm^3
- tumor growth inhibition rate (TGI, as compared to tumors of the vehicle control group) ([4]; day 12): 9%
- average tumor volume (±standard error) ([4]; day 15): 1408 (±157) mm^3
- tumor growth inhibition rate (TGI, as compared to tumors of the vehicle control group) ([4]; day 15): 8%
- average tumor volume (±standard error) ([4]; day 19): 2553 (±272) mm^3
- tumor growth inhibition rate (TGI, as compared to tumors of the vehicle control group) ([4]; day 19): 10%
